“Also recorded” adds a separate entry of the source.
Tests used:
[1] = test system: Hbb^th1 mice; assay: In vivo study in Hbb^th1 thalassemia mice: blood Hb and RBC levels; set-up: species or system mouse
Protocol: (§1) This model was used to evaluate the effect of Compound 1 to treat thalassemia.
(§2) Hbb^th1 mice were given Compound 1 dissolved in 10:90 DMSO:corn oil once daily, by oral gavage, at either a high dose (60 mg/kg) or a low dose (30 mg/kg). A normal (C57BL/6) mouse was included as a control in the study to establish baselines along with a Hbb^th1 vehicle mouse not given Compound 1. Animals were observed once daily for morbidity and mortality. Mice were not allowed to recover from anesthesia and were killed by cervical dislocation while still anesthetized. Necropsy was limited to removal and weighing of the spleen for further analysis.
Blood was collected on day 30, from the retroorbital sinus of all mice, while mice were under isoflurane anesthesia, using heparin capillaries and EDTA-coated tubes. Parameters measured were: Hb levels and RBC levels.

[2] = test system: Hbb^th1 mice; assay: Erythroblast differentiation (RBC maturation) in spleen cells of treated Hbb^th1 mice by flow cytometry; assay type: in vivo, mouse; details: 30 or 60 mg/kg once daily by oral gavage
Protocol: as §1, §2
RBC maturation is a key mechanistic component in reducing pathology of thalassemia. Therefore, immature RBC (Ery.B: late basophilic and polychromatic) percentage, mature RBC (Ery.C: ortochromatic and reticulocytes) percentage, and maturation index were also measured. […] Cells were further analyzed by flow cytometry (Gallios, Beckman) using FlowJo software v.10.1 (FlowJo, LLC). Results were expressed as the percentage of Ery.B (Live-Dead^neg, Ter-119^pos, CD71^pos, FSC^low) or Ery.C (Live-Dead^neg, Ter-119^pos, CD71^neg, FSC^low) populations. Maturation index was calculated as Ery.B/Ery.C ratio.

[3] = Effect of food on adverse event profile on once-daily administration to patients; assay type: in vivo; details: once a day with food
Protocol: In some embodiments, Compound 1, or a pharmaceutically acceptable salt, solvate, or polymorph thereof is administered to a patient, wherein Compound 1, or a pharmaceutically acceptable salt, solvate, or polymorph thereof is administered once a day with food. […] The incidence and severity of the side effects, such as nausea, emesis and headache, can be reduced when Compound 1, or a pharmaceutically acceptable salt, solvate, or polymorph thereof is taken with food.

For `C[C@@H]1CN(Cc2ncccn2)C[C@H]1c1cn2c(C3CCOCC3)ncc2c(=O)[nH]1` [Compound 1, 6-[(3S,4S)-4-methyl-1-(pyrimidin-2-ylmethyl)pyrrolidin-3-yl]-3-tetrahydropyran-4-yl-7H-imidazo[1,5-a]pyrazin-8-one], the “Hb levels (total Hb amount)” value ([1]; 30 or 60 mg/kg once daily by oral gavage, blood on day 30, FIG. 1A) was “increase Hb levels; also recorded: increases the total Hb amount”, the “RBC levels (RBC amount)” value ([1]; 30 or 60 mg/kg once daily by oral gavage, blood on day 30, FIG. 1B) was “increased RBC levels; also recorded: increases” and the “increase of total Hb vs. control groups” value ([1]; high dose (60 mg/kg), once daily by oral gavage, blood collected on day 30) was 1.3 g/dL. For the same molecule, the “immature RBC (Ery.B) percentage” value ([2]; FIG. 2A) was “reduces immature RBC cell percentages; also recorded: reduces immature RBC levels”, the “mature RBC (Ery.C) percentage” value ([2]; FIG. 2B) was “increases mature RBC cell percentages; also recorded: increases mature RBC levels” and the “adverse event profile (nausea, emesis, headache) when taken with food” value [3] was “food reduce the adverse event profile dramatically”.

Reference: US20220047589A1, “PDE9 INHIBITORS FOR TREATING THALASSEMIA” (Imara Inc., priority 2019, published 2022)
